Earlier results in US20080200512A1, “Hepatitis C virus polymerase inhibitors” (priority 2007, published 2008).

Test system: HCV
Details: monotherapy

## NC(=O)c1ncn([C@@H]2O[C@H](CO)[C@@H](O)[C@H]2O)n1 [ribavirin, 1-((2R,3R,4S,5R)-3,4-dihydroxy-5-hydroxymethyl-tetrahydro-furan-2-yl)-1H-[1,2,4]triazole-3-carboxylic acid amide]
  patients in whom serum amino transferase levels are reduced to normal: 40%
